Conditions: Liquid

FC(F)=C(F)C(F)(F)F [hexafluoropropene]
Conditions	vapor or sublimation pressure [kPa]
263.17 K	224.5
273.16 K	324.4
293.12 K	641
313.11 K	1099.4
333.11 K	1788.2
353.14 K	2778.2
